Structures can show the parent of a compound that is named as a salt. Where two headings read alike, the source gives them in different places.
Columns and labels:
[1] = background statement; cited from earlier work
[2] = background statement; cited from earlier work; remark: listed apart in the source
[3] = target: T1, human carbonic anhydrase II (Homo sapiens, UniProt P00918); experiment: Carbonic Anhydrase Inhibition Assay; type: biochemical
[4] = target: T1, human carbonic anhydrase II; experiment: Carbonic Anhydrase Binding Assay
[5] = in vitro inhibition of human carbonic anhydrase II, read-out: IC50
[6] = in vitro binding for human carbonic anhydrase II, read-out: Ki

IC50 [3, 5] [µM]	Ki [4, 6] [µM]	SMILES	also measured
–	–	CC(C)(C)NC[C@H](O)COc1nsnc1N1CCOCC1 [(S)-1-tert-Butylamino-3-[(4-morpholino-1,2-5-thiadiazol-3-yl)ox-yl]-2-propanol]	reduce intraocular pressure [1]: found to reduce intraocular pressure; duration of activity [2]: long duration of activity; local anesthetic properties [2]: devoid of local anesthetic properties; tolerance [2]: minimal tolerance
< 10	< 10	NS(=O)(=O)c1cc2c(s1)SCC(=O)N2 [Example 1, 2,3-Dihydro-2-oxo-6-sulfamoyl-1H-thieno[2,3-b][1,4]thiazine]	–
< 10	< 10	NS(=O)(=O)c1cc2c(s1)SC(CC(=O)O)C(=O)N2 (centres unmarked) [Example 2, (2,3-Dihydro-2-oxo-6-sulfamoyl-1H-thieno[2,3-b][1,4]thiazin-3-yl)acetic Acid]	–
–	–	NS(=O)(=O)c1cc2c(s1)S(=O)(=O)CC(=O)N2 [Example 4, 2,3-Dihydro-6-sulfamoyl-2,4,4-trioxo-1H-thieno[2,3-b][1,4]thiazine]	IC50 [3]: < 10 µM; Ki [4]: < 10 µM
< 10	< 10	NS(=O)(=O)c1cc2c(s1)S(=O)(=O)C(CC(=O)O)C(=O)N2 (centres unmarked) [Example 5, (2,3-Dihydro-2,4,4-trioxo-6-sulfamoyl-1H-thieno[2,3-b][1,4]thiazin-3-yl)acetic acid]	–
< 10	< 10	NS(=O)(=O)c1cc2c(s1)S(=O)(=O)CCN2 [Example 6, 2,3-Dihydro-4,4-dioxo-6-sulfamoyl-1H-thieno[2,3-b][1,4]thiazine]	–
< 10	< 10	NS(=O)(=O)c1cc2c(s1)S(=O)(=O)CC(=S)N2 [Example 8, 2,3-Dihydro-4,4-dioxo-6-sulfamoyl-2-thiono-1H-thieno[2,3-b][1,4]thiazine]	–
< 10	< 10	NS(=O)(=O)c1cc2c(s1)S(=O)(=O)C(CCO)CN2 (centres unmarked) [Example 10, 3-(2-Hydroxyethyl)-2,3-dihydro-4,4-dioxo-6-sulfamoyl-1H-thieno[2,3-b][1,4]thiazine]	–
< 10	< 10	COC(=O)CC1C(=O)Nc2cc(S(N)(=O)=O)sc2S1(=O)=O (centres unmarked) [Example 11, Methyl (2,3-Dihydro-2,4,4-trioxo-6-sulfamoyl-1H-thieno[2,3-b][1,4]thiazin-3-yl)acetate]	–
< 10	< 10	COC(=O)CC1Sc2sc(S(N)(=O)=O)cc2NC1=O (centres unmarked) [Example 12, Methyl (2,3-Dihydro-2-oxo-6-sulfamoyl-1H-thieno[2,3-b][1,4]thiazin-3-yl)acetate]	–
< 10	< 10	NNC(=O)CC1C(=O)Nc2cc(S(N)(=O)=O)sc2S1(=O)=O (centres unmarked) [Example 13, (2,3-Dihydro-6-sulfamoyl-2,4,4-trioxo-1H-thieno[2,3-b][1,4]thiazin-3-yl)acetic Acid Hydrazide]	–
< 10	< 10	CCOC(=O)NCC1C(=O)Nc2cc(S(N)(=O)=O)sc2S1(=O)=O (centres unmarked) [Example 14, 2,3-Dihydro-3-ethoxycarbonylaminomethyl-2,4,4-trioxo-6-sulfamoyl-1H-thieno[2,3-b][1,4]thiazine]	–
< 10	< 10	COCCOCCN(CCOC)C(=O)CC1C(=O)Nc2cc(S(N)(=O)=O)sc2S1(=O)=O (centres unmarked) [Example 16, N-Methoxyethoxyethyl-N-methoxyethyl(2,3-dihydro-2,4,4-trioxo-6-sulfamoyl-1H-thieno[2,3-b][1,4]thiazin-3-yl)acetamide]	–
< 10	< 10	COCCOCCN(CCOC)CCC1C(=O)Nc2cc(S(N)(=O)=O)sc2S1(=O)=O (centres unmarked) [Example 17, 3-[2-(N-Methoxyethoxyethyl-N-methoxyethylamino)ethyl]-2,3-dihydro-2,4,4-trioxo-6-sulfamoyl-1H-thieno[2,3-b][1,4]thiazine]	–
< 10	< 10	CC(C)CNCCC1CNc2cc(S(N)(=O)=O)sc2S1(=O)=O (centres unmarked) [Example 18, 3-(2-Isobutylaminoethyl)-2,3-dihydro-4,4-dioxo-6-sulfamoyl-1H-thieno[2,3-b][1,4]thiazine Hydrochloride]	–
–	–	COCCN(CCOC)CCC1CNc2cc(S(N)(=O)=O)sc2S1(=O)=O (centres unmarked) [Example 19, 3-[2-Bis-(2-methoxyethyl)aminoethyl]-2,3-dihydro-4,4-dioxo-6-sulfamoyl-1H-thieno[2,3-b][1,4]thiazine Hydrochloride]	IC50 [3]: < 10 µM; Ki [4]: < 10 µM
< 10	< 10	COCCOCCN(CCOC)CCC1CNc2cc(S(N)(=O)=O)sc2S1(=O)=O (centres unmarked) [Example 20, 3-[2-(N-Methoxyethoxyethyl-N-methoxyethylamino)ethyl]-2,3-dihydro-4,4-dioxo-6-sulfamoyl-1H-thieno[2,3-b][1,4]thiazine Hydrochloride]	–
–	–	CNC(=O)Oc1ccc2c(c1)[C@]1(C)CCN(C)[C@@H]1N2C [physostigmine]	reduce intraocular pressure [1]: reduce intraocular pressure
–	–	CC[C@@H]1C(=O)OC[C@@H]1Cc1cncn1C [pilocarpine]	reduce intraocular pressure [1]: reduce intraocular pressure
